This is an account of results in patent US20200291127A1, “ANTIBODIES AND METHODS OF USE THEREOF” (AbeXXa Biologics, Inc., priority 2020, published 2020).

In this experiment the target is HLA-E*0103 (Homo sapiens, UniProt P13747). Kind of experiment: HLA-E peptide refolding into monomer complexes. Format: biochemical.

As to YLLPAIVHI, the “refolding of HLA-E*0103/peptide” value is listed as “successfully refold HLA-E*0103/peptide into stable monomer complexes”.
